Measurements reported in patent US11661405B2, “Crystal forms of tetrahydro-n,n-dimethyl-2,2-diphenyl-3-furanmethanamine hydrochloride, processes of making such forms, and their pharmaceutical compositions” (ANAVEX LIFE SCIENCES CORP., priority 2015, dated 2023).

What was measured:
[1] = system: PI3K neuroprotective pathway (P-Akt, P-GSK-3β), Tau, Aβ1-42; conditions: cited from earlier work
[2] = system: amyloid toxicity (Aβ25-35); conditions: cited from earlier work
[3] = storage stability of crystalline forms, checked by PXRD; format: physicochemical; conditions: 40° C., 75% relative humidity, uncapped vessels, 1 week; forms from SCF in ethanol or dichloromethane
Description: The present disclosure also provides a metabolite of tetrahydro-N,N-dimethyl-2,2-diphenyl-3-furanmethanamine hydrochloride, ANAVEX19-144. […] See for example J. of Psychopharmacol. 25(8), 1101-1117 (2011). Crystalline forms of ANAVEX19-144 were produced by placing the ANAVEX19-144 starting material in a solvent of ethanol or dichloromethane and processed by the supercritical fluid technique. The crystalline form of ANAVEX19-144 produced by the supercritical fluid technique under process parameters of 40 mg/mL ethanol solution, 200 bars of pressure, temperature of 80° C., supercritical CO2 solution with a flow rate of 20 g/min and a TS flow of 0.4 mL/min, was characterized by PXRD, FTIR, DSC, and SEM, as shown in FIGS. 12-15. […] The crystalline form of ANAVEX19-144 produced using the dichloromethane supercritical fluid technique produced a powder with better flow characteristics and improved flow properties for downstream processing. The two crystalline forms of ANAVEX19-144, produced according to the supercritical fluid technique in ethanol or dichloromethane were stored at 40° C. at 75% relative humidity in uncapped vessels for 1 week and then characterized by PXRD to determine stability of the two forms.

SMILES	Aβ25-35-induced P-Akt decrease and P-GSK-3β increase ([1]; Aβ25-35-induced)	Aβ25-35-induced endogenous Aβ1-42 seeding ([1]; Aβ25-35-induced)	hyperphosphorylation of Tau on physiological epitopes (AT-8 clone) and pathological epitopes (AT-100 clone) ([1]; in the dose-range tested)	oxidative stress, caspases induction, cellular loss and learning and memory deficits ([2]; mice one week after i.c.v. injection of oligomeric Aβ25-35)	neuroprotective potential against amyloid toxicity ([2]; mice)	stability of the two crystalline forms (PXRD after storage) [3]
CN(C)CC1CCOC1(c1ccccc1)c1ccccc1.Cl (stereo not drawn) [ANAVEX2-73, tetrahydro-N,N-dimethyl-2,2-diphenyl-3-furanmethanamine hydrochloride]	blocked	decrease	attenuated	attenuating	shows neuroprotective potential against amyloid toxicity	
CNCC1CCOC1(c1ccccc1)c1ccccc1.Cl (stereo not drawn) [ANAVEX19-144]						stable under the conditions tested
